The source of these data is patent US9334280B2, “Synthetic rigidin analogues as anticancer agents, salts, solvates and prodrugs thereof, and method of producing same” (New Mexico Technical Research Foundation, priority 2012, dated 2016).

Assay [1] concerns HeLa cervical adenocarcinoma cells. Briefly: MTT antiproliferative assay, HeLa. The class given is cell-based. The settings on record: Homo sapiens, Table 1, 48 h treatment, MTT, ± SD, read-out: GI50 in vitro Values, HeLa. In outline:
(§1)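 Cells were seeded at 4×10^3 per well, grown 24 h, then treated at 0.04–100 μM for 48 h; HeLa in DMEM and MCF-7 in RPMI, each with 10% FBS. MTT for 2 h, formazan dissolved in DMSO, A490 read; quadruplicate, at least two repeats, 0.1% DMSO vehicle control and 1 μM phenyl arsine oxide as positive killing control.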
(In general: Formazan colour is commonly taken as a measure of viable cells.)

Assay [2] has as its system MCF-7 mammary gland adenocarcinoma cells. Briefly: MTT antiproliferative assay, MCF-7. The class given is cell-based. The settings on record: Homo sapiens, MCF7; Table 1; 48 h treatment, MTT, ± SD; read-out: GI50 in vitro Values, MCF-7. The essentials: as §1
Assay [3] concerns UM-SCC10A head and neck cancer cells. Briefly: MTT antiproliferative assay, UM-SCC10A. The settings on record: UMSCC-10A, Table 1A, 48 h, read-out: Concentration required to reduce the viability of cells by 50%, UM-SCC10A. The class given is cell-based. As to the method: (§2) To evaluate antiproliferative properties of the compounds of Formula I, mitochondrial dehydrogenase activities were measured using the MTT assay. The cell lines were prepared by trypsinizing and seeding […] cells per well into microplates. All compounds were reconstituted in dimethyl sulfoxide (DMSO) at a concentration of either 100 mM or 25 mM prior to treatment. The cells were grown for 24 hrs before treatment at concentrations ranging from 0.004 to 100 microM and incubated for 48 hrs in 200 microL media. 20 microL of MTT reagent in serum free medium (5 mg/mL) was added to each well and incubated further for 2 hrs. Media was removed and the resulting formazan crystals were re-solubilized in 100 microL of DMSO and the optical density (OD) was measured using a Thermomax Molecular Device plate reader at a wavelength of 490 nm. The experiments were performed in quadruplicate and repeated at least twice for each compound per cell line. Cells treated with 0.1% DMSO were used as a negative control, while phenyl arsine oxide (PAO) was used as a positive killing control.

In assay [4] the test system is UM-SCC22A head and neck cancer cells. Briefly: MTT antiproliferative assay, UM-SCC22A. The class given is cell-based. The settings on record: Table 1A, 48 h, read-out: Concentration required to reduce the viability of cells by 50%, UM-SCC22A. As for the experimental part:
as §2

For assay [5], the system named is UM-SCC10B head and neck metastases cells. Briefly: MTT antiproliferative assay, UM-SCC10B. The class given is cell-based. As to conditions: Table 1A, 48 h, read-out: Concentration required to reduce the viability of cells by 50%, UM-SCC10B. As to the method:
as §2

The test system of assay [6] is UM-SCC22B head and neck metastases cells. Briefly: MTT antiproliferative assay, UM-SCC22B. The class given is cell-based. The settings on record: Homo sapiens, UMSCC22B, Table 1A, 48 h, read-out: Concentration required to reduce the viability of cells by 50%, UM-SCC22B. As for the experimental part:
as §2

The test system of assay [7] is Hs683 anaplastic oligodendroglioma cells. Briefly: MTT antiproliferative assay, Hs683. It counts as cell-based. As to conditions: Homo sapiens, Hs 683, Table 2, 48 h, read-out: GI50 in vitro values, Hs683. As for the experimental part:
as §2

Assay [8] concerns SKMEL-28 melanoma cells. Briefly: MTT antiproliferative assay, SKMEL-28. It counts as cell-based, human. The settings on record: Homo sapiens, SK-MEL-28; Table 2; 48 h, MTT; read-out: GI50 in vitro values, SKMEL-28. As for the experimental part:
as §2
Human cancer cell lines were obtained from the American Type Culture Collection (ATCC, Manassas, Va., USA), the European Collection of Cell Culture (ECACC, Salisbury, UK) and the Deutsche Sammlung von Mikroorganismen and Zellkulturen (DSMZ, Braunschweig, Germany). Human cervical adenocarcinoma HeLa cells were cultured in DMEM supplemented with 10% fetal bovine serum (FBS). Human mammary carcinoma MCF-7 cells were cultured in RPMI supplemented with 10% FBS. The U87 and U373 cells were cultured in DMEM culture medium (Lonza code 12-136F, Vervier, Belgium), while the SKMEL-28 and A549 cells were cultured in RPMI culture medium (Lonza; code 12-115F) supplemented with 10% heat-inactivated FBS (Lonza, FBS South America code DE14-801F). […] All cell lines were cultured in T25 flasks, maintained and grown at 37° C., 95% humidity, 5% CO2.
To evaluate antiproliferative properties of the synthesized compounds, the MTT assay was used. The cell lines were assessed by trypsinizing each cell line and seeding 4×10^3 cells per well into 96-well plates. All compounds were dissolved in DMSO at a concentration of either 100 mM or 50 mM prior to cell treatment. The cells were grown for 24 h and then treated with compounds at concentrations ranging from 0.04 to 100 μM and incubated for 48 h in 200 μL media. 20 μL of MTT reagent in serum free medium (5 mg/mL) was added to each well and incubated further for 2 h. Media was removed, and the resulting formazan crystals were re-solubilized in 200 μL of DMSO. A490 was measured using a Thermomax Molecular Device plate reader. The experiments were performed in quadruplicate and repeated at least twice for each compound per cell line. […]

The test system of assay [9] is MES-SA uterine sarcoma cells. Briefly: MTT antiproliferative assay, MES-SA. It counts as cell-based. As to conditions: Homo sapiens, Table 3, parental drug-responsive cell line, read-out: GI50 in vitro Values, MES-SA. As for the experimental part:
Human T-cell leukemia cell line Jurkat (ATCC TIB-152, E6-1 clone) was cultured in RPMI-1640 (Invitrogen) supplemented with 10% FBS (Invitrogen), 100 mg/L penicillin G, 100 mg/L streptomycin, 1.0 mM sodium pyruvate, 1.5 g/L sodium bicarbonate, and 4.5 g/L glucose (all from Sigma). Human cervical cancer cell line HeLa (ATCC S3) was cultured in DMEM (Invitrogen) supplemented with 10% FBS, 100 mg/L penicillin G, and 100 mg/L streptomycin. MCF-7 (human mammary carcinoma) cells were cultured in DMEM supplemented with 1.0 mM sodium pyruvate, 1% GlutaMax™-1 (Invitrogen), 100 μg/mL penicillin, 100 μg/mL streptomycin, and 10% FBS. Human uterine sarcoma MES-SA and MES-SA/Dx5 cells were cultured in RPMI-1640 medium supplemented with 10% FBS, 100 mg/L penicillin G and 100 mg/L streptomycin. All cells were incubated at 37° C. in a humidified atmosphere with 5% CO2. […]
To evaluate antiproliferative properties of the compounds of Formula I, mitochondrial dehydrogenase activities were measured using the MTT assay. […] Media was removed and the resulting formazan crystals were re-solubilized in 100 microL of DMSO and the optical density (OD) was measured using a Thermomax Molecular Device plate reader at a wavelength of 490 nm. […]
The cells of such tumors are referred to as multidrug resistant (MDR). Thus, we assessed the compounds of Formula I for antiproliferative activity in an MDR cancer cell line. […]

For assay [10], the system named is MES-SA/Dx5 uterine sarcoma cells (overexpress p-gp). Briefly: MTT antiproliferative assay, MDR MES-SA/Dx5. It counts as cell-based, human. As for the experimental part:
Human T-cell leukemia cell line Jurkat (ATCC TIB-152, E6-1 clone) was cultured in RPMI-1640 (Invitrogen) supplemented with 10% FBS (Invitrogen), 100 mg/L penicillin G, 100 mg/L streptomycin, 1.0 mM sodium pyruvate, 1.5 g/L sodium bicarbonate, and 4.5 g/L glucose (all from Sigma). Human cervical cancer cell line HeLa (ATCC S3) was cultured in DMEM (Invitrogen) supplemented with 10% FBS, 100 mg/L penicillin G, and 100 mg/L streptomycin. MCF-7 (human mammary carcinoma) cells were cultured in DMEM supplemented with 1.0 mM sodium pyruvate, 1% GlutaMax™-1 (Invitrogen), 100 μg/mL penicillin, 100 μg/mL streptomycin, and 10% FBS. Human uterine sarcoma MES-SA and MES-SA/Dx5 cells were cultured in RPMI-1640 medium supplemented with 10% FBS, 100 mg/L penicillin G and 100 mg/L streptomycin. All cells were incubated at 37° C. in a humidified atmosphere with 5% CO2. The other cell lines were maintained in a similar fashion as previously described.
as §2
The cells of such tumors are referred to as multidrug resistant (MDR). Thus, we assessed the compounds of Formula I for antiproliferative activity in an MDR cancer cell line. This was done using the uterine sarcoma cells, MES-SA/Dx5, which overexpress p-gp. The parental drug-responsive MES-SA cell line was used as control.

On to `O=C(c1ccccc1)c1[nH]c2[nH]cnc(=O)c2c1-c1cc(Br)cc(Br)c1` [Rig8, 6-Benzoyl-5-(3,5-dibromophenyl)-1H-pyrrolo[2,3-d]pyrimidin-4(7H)-one], for which the GI50 in assay [1] was 95 ± 40 nM; in assay [2], 95 ± 10 nM; in assay [7], 20 nM; in assay [8] it was 20 nM; in [9] it was 81 ± 6 nM; in [10] (Homo sapiens, MES-SA/Dx5, Table 3, MDR cell line, read-out: GI50 in vitro Values, MES-SA/Dx5), 394 ± 10 nM. In addition, the IC50 in assay [3] worked out at 90 nM; in assay [4], 110 nM; in assay [5], 100 nM; in assay [6], 20 nM. Further, the “variation in the sensitivities of the parental and MDR cell lines” value in assay [10] (MES-SA/Dx5 vs MES-SA, in words) was “only a small variation”.
